Experimental data reported in patent US12522583B2, “Benzimidazole derivatives and aza-benzimidazole derivatives as Janus kinase 2 inhibitors and uses thereof” (Dana-Farber Cancer Institute, Inc., priority 2018, dated 2026).

What was measured:
Test in all cases: KINOMEscan
Type in all cases: binding
Conditions in all cases: read-out: percent control
[1] = target: CAMKK1 (Homo sapiens (Human), UniProt Q8N5S9)
Description: (§1) Example 2. In Vitro Kinase Selectivity Profiling of the Compounds of the Present Disclosure

[2] = target: PIP5K1C (Homo sapiens (Human), UniProt O60331)
Description: as §1

[3] = target: EPHB2 (Homo sapiens (Human), UniProt P29323)
Description: as §1

[4] = target: PAK4 (Homo sapiens (Human), UniProt O96013)
Description: as §1

[5] = target: ASK2 (Homo sapiens (Human), UniProt O95382)
Description: as §1

[6] = target: TGFBR1 (Homo sapiens (Human), UniProt P36897)
Description: as §1

[7] = target: OSR1 (Homo sapiens (Human), UniProt O95747)
Description: as §1

[8] = target: TSSK1B (Homo sapiens (Human), UniProt Q9BXA7)
Description: as §1

[9] = target: MRCKA (Homo sapiens (Human), UniProt Q5VT25)
Description: as §1

[10] = target: SLK (Homo sapiens (Human), UniProt Q9H2G2)
Description: as §1

[11] = target: QSK (Homo sapiens (Human), UniProt Q9Y2K2)
Description: as §1

[12] = target: ALK(L1196M) (Homo sapiens (Human), UniProt Q9UM73, L1196M)
Description: as §1

[13] = target: PAK7 (Homo sapiens (Human), UniProt Q9P286)
Description: as §1

[14] = target: CSK (Homo sapiens (Human), UniProt P41240)
Description: as §1

[15] = target: MELK (Homo sapiens (Human), UniProt Q14680)
Description: as §1

[16] = target: KIT(V559D) (Homo sapiens (Human), UniProt P10721, V559D)
Description: as §1

[17] = target: BMPR2 (Homo sapiens (Human), UniProt Q13873)
Description: as §1

[18] = target: SRPK2 (Homo sapiens (Human), UniProt P78362)
Description: as §1

[19] = target: ERK5 (Homo sapiens (Human), UniProt Q13164)
Description: as §1

[20] = target: PRP4 (Homo sapiens (Human), UniProt Q13523)
Description: as §1

[21] = target: ERK4 (Homo sapiens (Human), UniProt P31152)
Description: as §1

[22] = target: TYRO3 (Homo sapiens (Human), UniProt Q06418)
Description: as §1

[23] = target: RIPK4 (Homo sapiens (Human), UniProt P57078)
Description: as §1

[24] = target: CLK2 (Homo sapiens (Human), UniProt P49760)
Description: as §1

[25] = target: MEK3 (Homo sapiens (Human), UniProt P46734)
Description: as §1

[26] = target: MYLK (Homo sapiens (Human), UniProt Q15746)
Description: as §1

[27] = target: PAK3 (Homo sapiens (Human), UniProt O75914)
Description: as §1

[28] = target: ABL1(F317L)-nonphosphorylated (Homo sapiens (Human), UniProt P00519, F317L)
Description: as §1

[29] = target: CSNK1A1 (Homo sapiens (Human), UniProt P48729)
Description: as §1

[30] = target: ERK3 (Homo sapiens (Human), UniProt Q16659)
Description: as §1

[31] = target: EPHA1 (Homo sapiens (Human), UniProt P21709)
Description: as §1

[32] = target: KIT(V559D, V654A) (Homo sapiens (Human), UniProt P10721, V559D/V654A)
Description: as §1

[33] = target: p38-delta (Homo sapiens (Human), UniProt O15264)
Description: as §1

[34] = target: IRAK3 (Homo sapiens (Human), UniProt Q9Y616)
Description: as §1

[35] = target: MEK6 (Homo sapiens (Human), UniProt P52564)
Description: as §1

[36] = target: FLT3(D835V) (Homo sapiens (Human), UniProt P36888, D835V)
Description: as §1

[37] = target: ZAK (Homo sapiens (Human), UniProt Q9NYL2)
Description: as §1

[38] = target: JNK2 (Homo sapiens (Human), UniProt P45984)
Description: as §1

[39] = target: ROCK2 (Homo sapiens (Human), UniProt O75116)
Description: as §1

[40] = target: MARK4 (Homo sapiens (Human), UniProt Q96L34)
Description: as §1

p38-delta, sequence (O15264 whole entry): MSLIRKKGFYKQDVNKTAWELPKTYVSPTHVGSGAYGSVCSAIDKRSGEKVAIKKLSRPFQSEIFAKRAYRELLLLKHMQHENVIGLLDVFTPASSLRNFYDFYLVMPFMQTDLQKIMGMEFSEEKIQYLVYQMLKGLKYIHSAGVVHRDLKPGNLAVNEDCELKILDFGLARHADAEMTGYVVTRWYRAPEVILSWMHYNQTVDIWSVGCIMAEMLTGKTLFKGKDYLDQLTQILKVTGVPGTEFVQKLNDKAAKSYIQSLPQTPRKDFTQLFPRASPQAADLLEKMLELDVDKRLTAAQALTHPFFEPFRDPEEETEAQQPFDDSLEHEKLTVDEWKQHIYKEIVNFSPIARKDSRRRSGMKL
KIT(V559D), sequence (P10721 26-976 V559D): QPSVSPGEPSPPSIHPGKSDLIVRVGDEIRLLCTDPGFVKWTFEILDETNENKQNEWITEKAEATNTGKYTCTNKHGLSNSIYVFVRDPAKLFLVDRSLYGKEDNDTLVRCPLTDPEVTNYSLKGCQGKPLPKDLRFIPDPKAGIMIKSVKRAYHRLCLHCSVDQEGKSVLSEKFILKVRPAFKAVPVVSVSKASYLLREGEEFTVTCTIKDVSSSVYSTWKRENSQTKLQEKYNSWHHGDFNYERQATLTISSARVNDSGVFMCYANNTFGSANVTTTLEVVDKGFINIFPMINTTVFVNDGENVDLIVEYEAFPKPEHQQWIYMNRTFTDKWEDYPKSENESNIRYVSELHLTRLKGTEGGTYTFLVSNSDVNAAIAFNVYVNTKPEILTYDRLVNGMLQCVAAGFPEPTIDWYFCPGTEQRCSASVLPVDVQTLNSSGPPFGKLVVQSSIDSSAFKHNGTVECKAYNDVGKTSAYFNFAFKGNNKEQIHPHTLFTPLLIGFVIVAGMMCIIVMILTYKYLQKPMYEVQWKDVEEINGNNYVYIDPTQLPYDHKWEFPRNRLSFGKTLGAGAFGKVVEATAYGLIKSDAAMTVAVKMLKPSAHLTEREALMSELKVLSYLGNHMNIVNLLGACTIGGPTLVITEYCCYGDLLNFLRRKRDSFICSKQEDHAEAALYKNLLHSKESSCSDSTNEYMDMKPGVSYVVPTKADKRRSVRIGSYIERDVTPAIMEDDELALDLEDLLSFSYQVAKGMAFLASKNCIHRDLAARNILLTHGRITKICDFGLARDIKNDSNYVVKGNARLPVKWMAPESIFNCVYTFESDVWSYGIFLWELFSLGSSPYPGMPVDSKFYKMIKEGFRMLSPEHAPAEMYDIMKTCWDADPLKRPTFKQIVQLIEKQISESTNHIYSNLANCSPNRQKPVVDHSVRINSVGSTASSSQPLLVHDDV
PAK7, sequence (Q9P286 whole entry): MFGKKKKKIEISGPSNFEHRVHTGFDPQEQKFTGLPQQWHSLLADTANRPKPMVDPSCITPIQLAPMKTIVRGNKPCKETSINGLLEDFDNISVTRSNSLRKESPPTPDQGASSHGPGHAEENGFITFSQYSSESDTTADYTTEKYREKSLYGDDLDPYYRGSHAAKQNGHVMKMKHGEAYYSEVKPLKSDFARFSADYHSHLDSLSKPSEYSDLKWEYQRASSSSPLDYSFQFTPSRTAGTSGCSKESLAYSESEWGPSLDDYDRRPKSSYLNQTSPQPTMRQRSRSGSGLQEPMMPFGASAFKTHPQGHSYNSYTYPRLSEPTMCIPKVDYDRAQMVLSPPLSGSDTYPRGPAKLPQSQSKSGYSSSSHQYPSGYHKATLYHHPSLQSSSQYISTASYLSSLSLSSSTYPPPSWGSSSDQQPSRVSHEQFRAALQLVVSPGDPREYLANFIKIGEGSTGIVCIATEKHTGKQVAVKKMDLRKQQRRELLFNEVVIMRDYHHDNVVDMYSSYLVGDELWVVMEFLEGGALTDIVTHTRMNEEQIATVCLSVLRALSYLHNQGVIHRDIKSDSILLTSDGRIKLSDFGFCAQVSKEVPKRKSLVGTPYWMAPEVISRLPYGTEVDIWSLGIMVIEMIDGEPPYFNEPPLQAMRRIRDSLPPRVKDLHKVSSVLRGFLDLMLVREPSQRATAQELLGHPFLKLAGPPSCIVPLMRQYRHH
PAK3, sequence (O75914 whole entry): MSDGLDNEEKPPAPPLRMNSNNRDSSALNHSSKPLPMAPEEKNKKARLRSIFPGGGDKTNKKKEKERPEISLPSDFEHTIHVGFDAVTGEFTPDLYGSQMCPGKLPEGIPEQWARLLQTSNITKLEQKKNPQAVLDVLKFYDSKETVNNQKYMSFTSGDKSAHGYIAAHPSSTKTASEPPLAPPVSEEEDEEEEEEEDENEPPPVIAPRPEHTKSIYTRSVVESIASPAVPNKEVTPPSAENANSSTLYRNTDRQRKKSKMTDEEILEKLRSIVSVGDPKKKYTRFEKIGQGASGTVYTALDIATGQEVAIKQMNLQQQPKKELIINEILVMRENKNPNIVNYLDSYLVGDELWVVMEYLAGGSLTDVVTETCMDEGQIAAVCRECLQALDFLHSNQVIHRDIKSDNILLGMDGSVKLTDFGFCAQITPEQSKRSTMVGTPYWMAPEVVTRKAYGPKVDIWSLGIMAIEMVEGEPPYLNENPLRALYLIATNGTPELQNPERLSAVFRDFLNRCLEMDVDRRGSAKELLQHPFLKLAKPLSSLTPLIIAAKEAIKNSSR
SRPK2, sequence (P78362 whole entry): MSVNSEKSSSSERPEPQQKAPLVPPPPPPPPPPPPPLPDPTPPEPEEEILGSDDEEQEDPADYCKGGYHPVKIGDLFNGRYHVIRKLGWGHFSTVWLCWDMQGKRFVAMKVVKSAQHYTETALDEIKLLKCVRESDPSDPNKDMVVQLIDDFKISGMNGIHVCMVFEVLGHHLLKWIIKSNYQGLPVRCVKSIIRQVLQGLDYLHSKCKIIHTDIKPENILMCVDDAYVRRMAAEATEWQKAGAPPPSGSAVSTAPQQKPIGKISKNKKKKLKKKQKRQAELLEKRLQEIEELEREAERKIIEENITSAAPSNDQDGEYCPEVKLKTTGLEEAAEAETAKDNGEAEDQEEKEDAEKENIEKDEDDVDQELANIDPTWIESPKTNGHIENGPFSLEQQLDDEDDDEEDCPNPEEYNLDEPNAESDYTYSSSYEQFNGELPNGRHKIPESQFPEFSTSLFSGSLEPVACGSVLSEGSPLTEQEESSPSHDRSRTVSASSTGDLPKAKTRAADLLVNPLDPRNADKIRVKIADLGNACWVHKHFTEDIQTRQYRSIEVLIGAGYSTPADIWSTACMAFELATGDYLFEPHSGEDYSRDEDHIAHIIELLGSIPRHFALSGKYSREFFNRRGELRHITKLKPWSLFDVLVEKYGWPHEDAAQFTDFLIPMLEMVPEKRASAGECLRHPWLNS
KIT(V559D, V654A), sequence (P10721 26-976 V559D/V654A): as the sequence (P10721 26-976 V559D) above, with V629A counted along it
ZAK, sequence (Q9NYL2 whole entry): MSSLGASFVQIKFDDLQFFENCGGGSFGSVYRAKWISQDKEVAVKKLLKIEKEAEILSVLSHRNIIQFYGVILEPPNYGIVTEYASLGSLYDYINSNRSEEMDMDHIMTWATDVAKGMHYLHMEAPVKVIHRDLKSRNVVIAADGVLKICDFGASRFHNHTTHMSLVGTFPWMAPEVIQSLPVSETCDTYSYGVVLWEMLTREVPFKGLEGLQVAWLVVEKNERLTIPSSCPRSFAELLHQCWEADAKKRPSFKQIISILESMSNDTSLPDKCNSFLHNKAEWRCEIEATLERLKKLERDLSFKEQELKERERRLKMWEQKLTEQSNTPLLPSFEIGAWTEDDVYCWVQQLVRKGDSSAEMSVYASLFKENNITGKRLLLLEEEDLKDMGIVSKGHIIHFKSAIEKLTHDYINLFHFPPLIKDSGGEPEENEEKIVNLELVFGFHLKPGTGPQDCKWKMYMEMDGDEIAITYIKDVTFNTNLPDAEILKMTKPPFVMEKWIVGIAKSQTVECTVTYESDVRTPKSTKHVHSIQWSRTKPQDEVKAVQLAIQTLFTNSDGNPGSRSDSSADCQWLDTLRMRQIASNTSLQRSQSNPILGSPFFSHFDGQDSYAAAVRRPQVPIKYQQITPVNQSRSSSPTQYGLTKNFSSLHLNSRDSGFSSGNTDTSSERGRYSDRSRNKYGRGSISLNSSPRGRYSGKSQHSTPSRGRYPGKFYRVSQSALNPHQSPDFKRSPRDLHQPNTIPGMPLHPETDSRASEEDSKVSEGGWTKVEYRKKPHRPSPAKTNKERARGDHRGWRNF
TGFBR1, sequence (P36897 34-503): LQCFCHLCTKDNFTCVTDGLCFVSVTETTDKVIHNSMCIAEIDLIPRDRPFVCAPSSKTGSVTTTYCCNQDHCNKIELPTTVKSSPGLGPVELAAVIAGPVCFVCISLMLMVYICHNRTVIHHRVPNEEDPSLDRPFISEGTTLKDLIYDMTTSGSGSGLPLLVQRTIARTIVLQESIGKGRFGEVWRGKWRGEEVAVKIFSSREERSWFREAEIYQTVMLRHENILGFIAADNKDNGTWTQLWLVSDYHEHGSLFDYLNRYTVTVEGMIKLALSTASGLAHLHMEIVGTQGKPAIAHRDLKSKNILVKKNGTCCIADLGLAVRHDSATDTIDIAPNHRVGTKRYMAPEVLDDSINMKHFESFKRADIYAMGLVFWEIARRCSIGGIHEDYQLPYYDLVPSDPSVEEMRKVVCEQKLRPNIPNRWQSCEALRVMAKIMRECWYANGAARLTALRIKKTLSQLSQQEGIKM
JNK2, sequence (P45984 whole entry): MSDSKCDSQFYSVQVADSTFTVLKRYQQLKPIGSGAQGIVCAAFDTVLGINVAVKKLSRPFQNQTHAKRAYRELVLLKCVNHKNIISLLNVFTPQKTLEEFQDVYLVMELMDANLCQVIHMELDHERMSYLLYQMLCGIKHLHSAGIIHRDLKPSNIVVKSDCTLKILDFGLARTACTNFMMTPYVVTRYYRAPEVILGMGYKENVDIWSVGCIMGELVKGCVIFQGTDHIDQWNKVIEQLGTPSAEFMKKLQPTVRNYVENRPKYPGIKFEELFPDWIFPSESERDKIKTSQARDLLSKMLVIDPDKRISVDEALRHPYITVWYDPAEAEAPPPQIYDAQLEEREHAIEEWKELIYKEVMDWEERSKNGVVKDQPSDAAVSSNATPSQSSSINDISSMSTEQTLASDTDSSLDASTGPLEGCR

SMILES	remaining binding at 1 µM [1] [%]	remaining binding at 1 µM [2] [%]	remaining binding at 1 µM [3] [%]	remaining binding at 1 µM [4] [%]	remaining binding at 1 µM [5] [%]	remaining binding at 1 µM [6] [%]	remaining binding at 1 µM [7] [%]	remaining binding at 1 µM [8] [%]	remaining binding at 1 µM [9] [%]	remaining binding at 1 µM [10] [%]	remaining binding at 1 µM [11] [%]	remaining binding at 1 µM [12] [%]	remaining binding at 1 µM [13] [%]	remaining binding at 1 µM [14] [%]	remaining binding at 1 µM [15] [%]	remaining binding at 1 µM [16] [%]	remaining binding at 1 µM [17] [%]	remaining binding at 1 µM [18] [%]	remaining binding at 1 µM [19] [%]	remaining binding at 1 µM [20] [%]	other results
CCN1CCN(Cc2ccc(Nc3nc4ccc(Oc5ccnc(NC(C)=O)c5)cc4n3C)cc2C(F)(F)F)CC1 [Compound I-2]	100	81	81	94	97	100	100	100	100	81	60	78	86	63	83	0	100	92	89	100	remaining binding at 1 µM [21]: 100%; remaining binding at 1 µM [22]: 100%; remaining binding at 1 µM [23]: 86%; remaining binding at 1 µM [24]: 64%; remaining binding at 1 µM [25]: 57%; remaining binding at 1 µM [26]: 59%; remaining binding at 1 µM [27]: 54%; remaining binding at 1 µM [28]: 9%; remaining binding at 1 µM [29]: 72%; remaining binding at 1 µM [30]: 94%; remaining binding at 1 µM [31]: 100%; remaining binding at 1 µM [32]: 7.4%; remaining binding at 1 µM [33]: 77%; remaining binding at 1 µM [34]: 91%; remaining binding at 1 µM [35]: 88%; remaining binding at 1 µM [36]: 51%; remaining binding at 1 µM [37]: 25%; remaining binding at 1 µM [38]: 85%; remaining binding at 1 µM [39]: 100%; remaining binding at 1 µM [40]: 98%
CCN1CCN(Cc2ccc(Nc3nc4ccc(Oc5ccnc(NC(C)=O)c5)c(C)c4n3C)cc2C(F)(F)F)CC1 [Compound I-6, N-(4-(2-(4-((4-ethylpiperazin-1-yl)methyl)-3-(trifluoromethyl)phenylamino)-1,7-dimethyl-1H-benzo[d]imidazol-6-yloxy)pyridin-2-yl)acetamide]	100	85	100	97	89	95	87	100	98	55	85	51	16	87	93	0.15	100	75	88	100	remaining binding at 1 µM [21]: 90%; remaining binding at 1 µM [22]: 100%; remaining binding at 1 µM [23]: 97%; remaining binding at 1 µM [24]: 91%; remaining binding at 1 µM [25]: 87%; remaining binding at 1 µM [26]: 91%; remaining binding at 1 µM [27]: 77%; remaining binding at 1 µM [28]: 3.2%; remaining binding at 1 µM [29]: 100%; remaining binding at 1 µM [30]: 94%; remaining binding at 1 µM [31]: 46%; remaining binding at 1 µM [32]: 19%; remaining binding at 1 µM [33]: 73%; remaining binding at 1 µM [34]: 91%; remaining binding at 1 µM [35]: 71%; remaining binding at 1 µM [36]: 40%; remaining binding at 1 µM [37]: 5.6%; remaining binding at 1 µM [38]: 66%; remaining binding at 1 µM [39]: 90%; remaining binding at 1 µM [40]: 83%
